Laboratory results as given in patent publication US10981911B2, “Imidazopyrrolopyridine as inhibitors of the JAK family of kinases” (Janssen Pharmaceutica NV, priority 2016, dated 2021).
pIC50: −log10 of the molar value.

Assays:
Assay type in all cases: biochemical
JAK1-JH1JH2 = JAK1-JH1JH2 (Homo sapiens (Human), UniProt P23458); test: Enzymatic inhibition assay (RapidFire HTMS), JAK1; details: 12.5 μM ATP, 200 μM substrate; read-out: JAK1-JH2JH1 IC50
Description: (§1) LC/MS grade Water and Acetonitrile (ACN), were purchased from HoneyWell, Burdick & Jackson (Muskegon, Mich., USA). Dimethylsulfoxide 99.8% (DMSO) and Trifluoroacetic Acid 99.5% (TFA) were purchased from EMD Chemical (Gibbstown, N.J., USA). Adenosine triphosphate (ATP), 4-Morpholinepropanesulfonic acid (MOPS), Magnesium chloride (MgCl2), ethylenediaminetetraacetic acid (EDTA), dithiothreitol (DTT), formic acid >95% (FA) and Tween-20 were purchased from Sigma (St Louis, Mo., USA). 384-well polypropylene plates, Cat #781280 were purchased from Greiner (Monroe, N.C.), RapidFire™ cartridge A C4 Column (Agilent Technologies, Santa Clara, Calif.).
(§2) The HTMS experiments were performed in positive ionization mode on a RapidFire 300 instrument (Agilent Technologies, Santa Clara, Calif.), coupled with an ABSiex QTrap 4000 system with an Electrospray Ionization source (RF-MS) (Concord, ON, Canada). […] The entire system was operated using the RapidFire software interfaced with Analyst software for the mass spectrometer.
(§3) 11-point dosing series were made for each compound by serially diluting 1:3 or 1:4 in DMSO, with point 12 being a DMSO control. From the serial dilution plates, sample was transferred to a 384 wells assay plate (#781280, Greiner, Monroe, N.C.) using Labcyte Echo (Sunnyvale, Calif.), or Biosero ATS (San Diego, Calif.). The compounds were tested in duplicate. Column 12 was used for positive controls, and column 24 contained negative controls with no enzyme added. A compound from our internal collection, with inhibitory activity for JAK isoforms, was used as a reference compound. The final concentration of DMSO was ≤0.25% in a 20 μL reaction. […] The Tyk2 enzyme was pre-incubated with 2 mM ATP for 30 min prior to the reaction initiation. Immediately after the addition of the enzyme to the reaction mixture, the plate was centrifuged at 1000 rpm for 1 minute and incubated at 25° C. for 45 minutes for JAK 3 and 90 minutes for JAK1, JAK2 and Tyk2. The reaction was quenched by the addition of 20 μL of 0.5% TFA containing 0.15 μM of internal standard peptide using Multidrop Combi reagent dispenser (Thermo Scientific, Waltham, Mass.). […] After the quench, the assay plate was centrifuged at 3000 rpm for 3 minutes and sealed with pierceable aluminum foil (Cat #06644-001, Agilent) using a PlateLoc (Agilent Technologies, Santa Clara, Calif.). The plates then were transferred on to the RapidFire for the MS analysis. Compound inhibition was assessed by a decrease of the phosphorylated product levels in sample wells compared to the non-inhibited enzyme reaction.
(§4) The sample analysis on the RapidFire was performed using a mobile phase A consisting of Water/TFA/FA (100:0.01:0.1, v/v/v), a mobile phase B consisting of ACN/Water/TFA/FA (80:20:0.01:0.1, v/v/v). […] The samples were aspirated directly from the 384 assay plate and delivered onto RF-MS microscale solid-phase C4 extraction cartridge (Type A). The undesired component such as salt, cofactor, detergent and large protein were washed out and the retained analytes (substrate, product and IS) were coeluted directly onto the ABSiex Qtrap 4000 system.

JAK2-JH1JH2 = JAK2-JH1JH2 (Homo sapiens (Human), UniProt O60674); test: Enzymatic inhibition assay (RapidFire HTMS), JAK2; details: 30 μM ATP, 40 μM substrate
Chain of JAK2-JH1JH2 (O60674 532-1132): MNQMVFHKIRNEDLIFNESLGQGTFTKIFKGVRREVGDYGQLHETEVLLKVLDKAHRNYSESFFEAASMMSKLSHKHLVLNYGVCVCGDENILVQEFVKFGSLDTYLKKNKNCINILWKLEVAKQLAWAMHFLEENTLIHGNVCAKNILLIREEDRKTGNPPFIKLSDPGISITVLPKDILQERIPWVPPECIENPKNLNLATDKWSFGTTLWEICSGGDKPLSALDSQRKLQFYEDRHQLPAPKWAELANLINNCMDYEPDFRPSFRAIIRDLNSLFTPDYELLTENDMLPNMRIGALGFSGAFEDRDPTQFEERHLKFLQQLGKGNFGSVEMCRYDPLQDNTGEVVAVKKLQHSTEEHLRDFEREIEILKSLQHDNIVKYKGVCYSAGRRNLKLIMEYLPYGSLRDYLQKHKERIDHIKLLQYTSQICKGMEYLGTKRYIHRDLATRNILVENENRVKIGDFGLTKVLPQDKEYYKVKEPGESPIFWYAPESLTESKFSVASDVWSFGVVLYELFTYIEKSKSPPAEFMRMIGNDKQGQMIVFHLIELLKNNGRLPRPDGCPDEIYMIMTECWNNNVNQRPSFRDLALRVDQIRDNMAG
Description: as §1, §2, §3, §4

JAK3-JH1JH2 = JAK3-JH1JH2 (Homo sapiens (Human), UniProt P52333); test: Enzymatic inhibition assay (RapidFire HTMS), JAK3; details: 150 μM ATP, 40 μM substrate
Chain of JAK3-JH1JH2 (P52333 512-1124): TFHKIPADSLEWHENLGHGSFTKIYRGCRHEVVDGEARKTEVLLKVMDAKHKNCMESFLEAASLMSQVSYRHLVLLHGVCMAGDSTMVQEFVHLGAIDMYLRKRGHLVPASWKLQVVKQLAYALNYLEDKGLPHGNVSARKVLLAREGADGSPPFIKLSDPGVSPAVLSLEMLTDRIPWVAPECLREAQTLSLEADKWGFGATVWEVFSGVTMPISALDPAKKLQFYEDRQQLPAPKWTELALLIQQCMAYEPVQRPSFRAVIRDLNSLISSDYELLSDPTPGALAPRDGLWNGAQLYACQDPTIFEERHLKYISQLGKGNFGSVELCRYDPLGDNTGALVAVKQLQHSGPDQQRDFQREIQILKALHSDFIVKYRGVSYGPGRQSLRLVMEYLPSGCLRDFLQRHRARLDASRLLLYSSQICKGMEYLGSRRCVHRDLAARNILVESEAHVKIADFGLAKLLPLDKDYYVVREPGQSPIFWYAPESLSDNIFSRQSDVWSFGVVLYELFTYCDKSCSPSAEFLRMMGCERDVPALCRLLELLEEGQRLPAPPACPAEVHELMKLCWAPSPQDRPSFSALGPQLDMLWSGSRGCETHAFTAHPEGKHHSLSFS
Description: as §1, §2
as §3, with “compound.” for “compound. The final concentration of DMSO was ≤0.25% in a 20 μL reaction.”
as §4

Tyk2-JH1JH2 = Tyk2-JH1JH2 (Homo sapiens (Human), UniProt P29597, C1142A/C936A); test: Enzymatic inhibition assay (RapidFire HTMS), Tyk2; details: 50 μM ATP, 200 μM substrate
Chain of Tyk2-JH1JH2 (P29597 580-1182 C936A/C1142A): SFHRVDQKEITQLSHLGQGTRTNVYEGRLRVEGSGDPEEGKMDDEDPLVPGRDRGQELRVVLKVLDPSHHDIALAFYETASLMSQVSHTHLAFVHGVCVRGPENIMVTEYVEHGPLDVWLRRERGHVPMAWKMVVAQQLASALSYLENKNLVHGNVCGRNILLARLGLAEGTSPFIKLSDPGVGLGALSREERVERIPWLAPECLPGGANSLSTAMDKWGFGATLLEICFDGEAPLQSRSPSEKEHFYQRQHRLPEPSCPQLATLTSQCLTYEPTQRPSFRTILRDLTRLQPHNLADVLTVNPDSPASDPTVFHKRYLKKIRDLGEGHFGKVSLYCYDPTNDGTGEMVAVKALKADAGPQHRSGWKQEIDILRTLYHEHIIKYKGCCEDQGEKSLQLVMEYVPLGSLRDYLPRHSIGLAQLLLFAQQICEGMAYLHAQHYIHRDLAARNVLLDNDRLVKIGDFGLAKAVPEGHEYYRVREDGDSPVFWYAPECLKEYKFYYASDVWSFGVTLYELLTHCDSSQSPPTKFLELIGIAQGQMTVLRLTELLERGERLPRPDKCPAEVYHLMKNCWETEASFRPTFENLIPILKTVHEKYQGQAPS
Description: as §1, §2, §3, §4

Chain of JAK1-JH1JH2 (P23458 574-1154): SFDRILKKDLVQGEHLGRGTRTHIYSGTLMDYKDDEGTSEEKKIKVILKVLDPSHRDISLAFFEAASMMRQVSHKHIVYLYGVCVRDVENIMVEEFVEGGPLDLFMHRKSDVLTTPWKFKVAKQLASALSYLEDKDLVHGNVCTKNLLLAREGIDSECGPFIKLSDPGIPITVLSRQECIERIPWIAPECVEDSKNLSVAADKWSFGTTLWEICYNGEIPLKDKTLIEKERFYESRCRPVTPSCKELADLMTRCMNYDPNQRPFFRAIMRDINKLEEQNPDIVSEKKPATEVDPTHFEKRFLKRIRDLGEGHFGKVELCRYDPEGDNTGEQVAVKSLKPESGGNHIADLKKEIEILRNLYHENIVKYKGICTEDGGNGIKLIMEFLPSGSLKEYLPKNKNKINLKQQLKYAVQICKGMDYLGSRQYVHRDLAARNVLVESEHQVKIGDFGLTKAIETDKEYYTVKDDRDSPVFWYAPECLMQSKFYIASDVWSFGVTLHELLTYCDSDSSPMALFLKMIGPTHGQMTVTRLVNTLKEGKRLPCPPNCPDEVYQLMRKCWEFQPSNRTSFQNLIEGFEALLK

For COCCNC(=O)OCc1nc2cnc3[nH]ccc3c2n1[C@H]1CC[C@H](CC#N)CC1 [Ex. 161, (1-((1r,4r)-4-(Cyanomethyl)cyclohexyl)-1,6-dihydroimidazo[4,5-d]pyrrolo[2,3-b]pyridin-2-yl)methyl (2-methoxyethyl)carbamate], the pIC50 (JAK1-JH1JH2) was 8.80, the pIC50 (JAK2-JH1JH2) was 7.70 and the pIC50 (JAK3-JH1JH2) was 6.59. The pIC50 (Tyk2-JH1JH2) was 7.70.
In the case of CNc1nccc(-c2nc3cnc4[nH]ccc4c3n2[C@H]2CC[C@H](CC#N)CC2)n1 [Ex. 89, 2-((1r,4r)-4-(2-(2-(Methylamino)pyrimidin-4-yl)imidazo[4,5-d]pyrrolo[2,3-b]pyridin-1(6H)-yl)cyclohexyl)acetonitrile], the pIC50 (JAK1-JH1JH2) was 9.40, the pIC50 (JAK2-JH1JH2) was 8.47 and the pIC50 (JAK3-JH1JH2) was 7.22. For the same compound, the pIC50 (Tyk2-JH1JH2) was 7.74.
Work on N#CCC(=O)N1CC(c2nc3cnc4[nH]ccc4c3n2[C@H]2CC[C@H](CC#N)CC2)C1 [Ex. 160, 3-(3-(1-((1r,4r)-4-(Cyanomethyl)cyclohexyl)-1,6-dihydroimidazo[4,5-d]pyrrolo[2,3-b]pyridin-2-yl)azetidin-1-yl)-3-oxopropanenitrile] yielded a pIC50 (JAK1-JH1JH2) of 8.82, a pIC50 (JAK2-JH1JH2) of 7.06 and a pIC50 (JAK3-JH1JH2) of 5.97. For the same compound, the pIC50 (Tyk2-JH1JH2) was 7.28.
Compound N#CC[C@H]1CC[C@H](n2c(C(=O)NC3CCOCC3)nc3cnc4[nH]ccc4c32)CC1 [Ex. 178, 1-((1r,4r)-4-(Cyanomethyl)cyclohexyl)-N-(tetrahydro-2H-pyran-4-yl)-1,6-dihydroimidazo[4,5-d]pyrrolo[2,3-b]pyridine-2-carboxamide] has a pIC50 (JAK1-JH1JH2) of 8.51, a pIC50 (JAK2-JH1JH2) of 7.22 and a pIC50 (JAK3-JH1JH2) of 5.88. It also gave a pIC50 (Tyk2-JH1JH2) of 7.37.
Compound Cc1nc(C)c(-c2nc3cnc4[nH]ccc4c3n2[C@H]2CC[C@H](CC#N)CC2)o1 [Ex. 183, 2-((1r,4r)-4-(2-(2,4-dimethyloxazol-5-yl)imidazo[4,5-d]pyrrolo[2,3-b]pyridin-1(6H)-yl)cyclohexyl)acetonitrile] has a pIC50 (JAK1-JH1JH2) of 8.37, a pIC50 (JAK2-JH1JH2) of 7.28 and a pIC50 (JAK3-JH1JH2) of 6.19. For the same compound, the pIC50 (Tyk2-JH1JH2) was 6.93.
With CSc1nccc(-c2nc3cnc4[nH]ccc4c3n2[C@H]2CC[C@H](CC#N)CC2)n1 [Ex. 98, 2-((1r,4r)-4-(2-(2-(Methylthio)pyrimidin-4-yl)imidazo[4,5-d]pyrrolo[2,3-b]pyridin-1(6H)-yl)cyclohexyl)acetonitrile] the pIC50 (JAK1-JH1JH2) was 9.30, the pIC50 (JAK2-JH1JH2) was 8.03 and the pIC50 (JAK3-JH1JH2) was 6.93. It also gave a pIC50 (Tyk2-JH1JH2) of 7.89.
Compound N#CC[C@H]1CC[C@H](n2c(C(=O)N3CCC(O)CC3)nc3cnc4[nH]ccc4c32)CC1 [Ex. 181, 2-((1r,4r)-4-(2-(4-Hydroxypiperidine-1-carbonyl)imidazo[4,5-d]pyrrolo[2,3-b]pyridin-1(6H)-yl)cyclohexyl)acetonitrile] has a pIC50 (JAK1-JH1JH2) of 8.27, a pIC50 (JAK2-JH1JH2) of 6.48 and a pIC50 (JAK3-JH1JH2) of 5.20. The pIC50 (Tyk2-JH1JH2) was 6.80.
N#CC[C@H]1CC[C@H](n2c(-c3cncs3)nc3cnc4[nH]ccc4c32)CC1 [Ex. 119, 2-((1r,4r)-4-(2-(Thiazol-5-yl)imidazo[4,5-d]pyrrolo[2,3-b]pyridin-1(6H)-yl)cyclohexyl)acetonitrile] was tested, and the pIC50 (JAK1-JH1JH2) was 9.15, the pIC50 (JAK2-JH1JH2) was 8.06 and the pIC50 (JAK3-JH1JH2) was 6.93. It also gave a pIC50 (Tyk2-JH1JH2) of 7.80.
Compound C[S@](=O)(=NCc1nc2cnc3[nH]ccc3c2n1[C@H]1CC[C@H](CC#N)CC1)c1ccccc1 [Ex. 162, 2-((1r,4r)-4-(2-((((R)-Methyl(oxo)(phenyl)-λ^6-sulfanylidene)amino)methyl)imidazo[4,5-d]pyrrolo[2,3-b]pyridin-1(6H)-yl)cyclohexyl)acetonitrile] has a pIC50 (JAK1-JH1JH2) of 8.80, a pIC50 (JAK2-JH1JH2) of 6.95 and a pIC50 (JAK3-JH1JH2) of 5.64. It also gave a pIC50 (Tyk2-JH1JH2) of 7.09.
Work on COC1CCN(C(=O)Cc2nc3cnc4[nH]ccc4c3n2[C@H]2CC[C@H](CC#N)CC2)CC1 [Ex. 197, 2-((1r,4r)-4-(2-(2-(4-Methoxypiperidin-1-yl)-2-oxoethyl)imidazo[4,5-d]pyrrolo[2,3-b]pyridin-1(6H)-yl)cyclohexyl)acetonitrile] yielded a pIC50 (JAK1-JH1JH2) of over 8.40, a pIC50 (JAK2-JH1JH2) of 7.81 and a pIC50 (JAK3-JH1JH2) of 6.88. The pIC50 (Tyk2-JH1JH2) was 8.21.
With C#Cc1ccc(C(=O)c2ccc(-c3nc4cnc5[nH]ccc5c4n3[C@H]3CC[C@H](CC#N)CC3)cc2)cc1 [Ex. 169, 2-((1r,4r)-4-(2-(4-(4-Ethynylbenzoyl)phenyl)imidazo[4,5-d]pyrrolo[2,3-b]pyridin-1(6H)-yl)cyclohexyl)acetonitrile] the pIC50 (JAK1-JH1JH2) was 8.70, the pIC50 (JAK2-JH1JH2) was 7.51 and the pIC50 (JAK3-JH1JH2) was 5.25. It also gave a pIC50 (Tyk2-JH1JH2) of 6.98.
CC(C)(O)CNC(=O)Cc1nc2cnc3[nH]cc(F)c3c2n1[C@H]1CC[C@H](CC#N)CC1 [Ex. 132, 2-(1-((1r,4r)-4-(Cyanomethyl)cyclohexyl)-8-fluoro-1,6-dihydroimidazo[4,5-d]pyrrolo[2,3-b]pyridin-2-yl)-N-(2-hydroxy-2-methylpropyl)acetamide] was tested, and the pIC50 (JAK1-JH1JH2) was 9.10, the pIC50 (JAK2-JH1JH2) was 7.86 and the pIC50 (JAK3-JH1JH2) was 7.21. For the same compound, the pIC50 (Tyk2-JH1JH2) was 7.79.
In the case of N#CC[C@H]1CC[C@H](n2c(C(=O)N3CCC(O)(c4ccccn4)CC3)nc3cnc4[nH]ccc4c32)CC1 [Ex. 88, 2-((1r,4r)-4-(2-(4-Hydroxy-4-(pyridin-2-yl)piperidine-1-carbonyl)imidazo[4,5-d]pyrrolo[2,3-b]pyridin-1(6H)-yl)cyclohexyl)acetonitrile], the pIC50 (JAK1-JH1JH2) was 9.40, the pIC50 (JAK2-JH1JH2) was 7.36 and the pIC50 (Tyk2-JH1JH2) was 7.31.
C[Si](C)(C)[C@H]1CC[C@H](NC(=O)Cc2nc3cnc4[nH]ccc4c3n2[C@H]2CC[C@H](CC#N)CC2)CC1 [Ex. 167, 2-(1-((1r,4r)-4-(Cyanomethyl)cyclohexyl)-1,6-dihydroimidazo[4,5-d]pyrrolo[2,3-b]pyridin-2-yl)-N-((1r,4r)-4-(trimethylsilyl)cyclohexyl)acetamide] was tested, and the pIC50 (JAK1-JH1JH2) was 8.72, the pIC50 (JAK2-JH1JH2) was 7.68 and the pIC50 (Tyk2-JH1JH2) was 7.59.
Work on C[Si](C)(C)[C@H]1CC[C@@H](NC(=O)Cc2nc3cnc4[nH]ccc4c3n2[C@H]2CC[C@H](CC#N)CC2)CC1 [Ex. 135, 2-(1-((1r,4r)-4-(Cyanomethyl)cyclohexyl)-1,6-dihydroimidazo[4,5-d]pyrrolo[2,3-b]pyridin-2-yl)-N-((1S,4S)-4-(trimethylsilyl)cyclohexyl)acetamide] yielded a pIC50 (JAK1-JH1JH2) of 9.10, a pIC50 (JAK2-JH1JH2) of 8.40 and a pIC50 (Tyk2-JH1JH2) of 8.06.
CCOP(=O)(Cc1ccc(NC(=O)Cc2nc3cnc4[nH]ccc4c3n2[C@H]2CC[C@H](CC#N)CC2)cc1)OCC [Ex. 108, Diethyl 4-(2-(1-((1r,4r)-4-(cyanomethyl)cyclohexyl)-1,6-dihydroimidazo[4,5-d]pyrrolo[2,3-b]pyridin-2-yl)acetamido)benzylphosphonate] showed a pIC50 (JAK1-JH1JH2) of 9.22, a pIC50 (JAK2-JH1JH2) of 8.42 and a pIC50 (Tyk2-JH1JH2) of 8.15.
N#CC[C@H]1CC[C@H](n2c(-c3cn[nH]n3)nc3cnc4[nH]ccc4c32)CC1 [Ex. 16, 2-((1r,4r)-4-(2-(2H-1,2,3-Triazol-4-yl)imidazo[4,5-d]pyrrolo[2,3-b]pyridin-1(6H)-yl)cyclohexyl)acetonitrile] was tested, and the pIC50 (JAK1-JH1JH2) was 10.00, the pIC50 (JAK3-JH1JH2) was 7.42 and the pIC50 (Tyk2-JH1JH2) was 8.43.
